Data as given in patent US10800772B2 (Gilead Sciences, Inc., priority 2016, dated 2020).
Where two headings read alike, the source gives them in different places.

Experiments:
Assay type in all cases: cell-based, HIV-1
[1] = system: HIV-IIIb (wildtype); assay: Antiviral assay in MT4 cells, HIV-IIIb wildtype; settings: read-out: WT EC50
Method in brief: (§1)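 First, MT4 cells are infected with HIV-IIIb for 3 h at 37 °C (0.004 m.o.i.). Next, 2000 cells are added per well to 3-fold serial compound dilutions and cultured for 5 days. Finally, CellTiter-Glo chemiluminescence is read and EC50 is derived from the 50% signal decrease.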

[2] = system: HIV-IIIb IN T174I BT; assay: Antiviral assay in MT4 cells, HIV-IIIb IN T174I BT virus (from viral breakthrough)
Method in brief: as §1

[3] = system: HIV-IIIb IN T174I DE; assay: Antiviral assay in MT4 cells, HIV-IIIb IN T174I DE virus (from dose escalation passaging)
Method in brief: as §1

[4] = Human immunodeficiency virus 1, IIIB, MT4, 120 h
[5] = Human immunodeficiency virus 1, IIIB, MT4, 120 h, read-out: T174I BT EC50, MT4 cells, HIV-IIIb IN T174I BT (viral breakthrough), 5 days, CellTiter-Glo
[6] = Human immunodeficiency virus 1, IIIB, MT4, 120 h, read-out: T174I DE EC50, MT4 cells, HIV-IIIb IN T174I DE (dose escalation), 5 days, CellTiter-Glo

Structure (SMILES) | EC50 [1, 4] [nM] | EC50 [2, 5] [nM] | EC50 [3, 6] [nM] | EC50 ([1]; MT4 cells, HIV-IIIb wildtype, 5 days, CellTiter-Glo) [nM] | EC50 ([2]; read-out: T174I BT EC50, MT4 cells, HIV-IIIb IN T174I BT (viral breakthrough), 5 days, CellTiter-Glo) [nM] | EC50 ([3]; read-out: T174I DE EC50, MT4 cells, HIV-IIIb IN T174I DE (dose escalation), 5 days, CellTiter-Glo) [nM]
Cc1cc2nc(-c3ccc4c(c3)c(C3CN(C)C3)nn4C)sc2c(-c2ccc(Cl)cc2)c1[C@H](OC(C)(C)C)C(=O)O [Compound 57, (S)-2-(tert-butoxy)-2-(7-(4-chlorophenyl)-5-methyl-2-(1-methyl-3-(1-methylazetidin-3-yl)-1H-indazol-5-yl)benzo[d]thiazol-6-yl)acetic acid] | 13 | 4260 | 4140 | – | – | –
CCN1CC(c2nn(C)c3ccc(-c4nc5cc(C)c([C@H](OC(C)(C)C)C(=O)O)c(-c6ccc(Cl)cc6)c5s4)cc23)C1 [Compound 58, (S)-2-(tert-butoxy)-2-(7-(4-chlorophenyl)-2-(3-(1-ethylazetidin-3-yl)-1-methyl-1H-indazol-5-yl)-5-methylbenzo[d]thiazol-6-yl)acetic acid] | 9 | 1930 | 3090 | – | – | –
Cc1cc2nc(-c3ccc4c(c3)c(C3CN(C5COC5)C3)nn4C)sc2c(-c2ccc(Cl)cc2)c1[C@H](OC(C)(C)C)C(=O)O [Compound 59, (S)-2-(tert-butoxy)-2-(7-(4-chlorophenyl)-5-methyl-2-(1-methyl-3-(1-(oxetan-3-yl)azetidin-3-yl)-1H-indazol-5-yl)benzo[d]thiazol-6-yl)acetic acid] | 8 | 883 | 1730 | – | – | –
Cc1cc2nc(-c3ccc4c(c3)c(C3CN(C(C)(C)C)C3)nn4C)sc2c(-c2ccc(Cl)cc2)c1[C@H](OC1CC1)C(=O)O [Compound 60, (S)-2-(2-(3-(1-(tert-butyl)azetidin-3-yl)-1-methyl-1H-indazol-5-yl)-7-(4-chlorophenyl)-5-methylbenzo[d]thiazol-6-yl)-2-cyclopropoxyacetic acid] | 31 | 477 | 692 | – | – | –
Cc1cc2nc(-c3ccc4c(c3)c(C3CCN(C(=O)OC(C)(C)C)C3)nn4C)sc2c(-c2ccc(Cl)cc2)c1[C@H](OC(C)(C)C)C(=O)O (stereo partly drawn) [Compound 62, (2S)-2-(tert-butoxy)-2-(2-(3-(1-(tert-butoxycarbonyl)pyrrolidin-3-yl)-1-methyl-1H-indazol-5-yl)-7-(4-chlorophenyl)-5-methylbenzo[d]thiazol-6-yl)acetic acid] | 108 | 331 | 514 | – | – | –
Cc1cc2nc(-c3ccc4c(c3)c(C3CCN(C)C3)nn4C)sc2c(-c2ccc(Cl)cc2)c1[C@H](OC(C)(C)C)C(=O)O (stereo partly drawn) [Compound 63, (2S)-2-(tert-butoxy)-2-(7-(4-chlorophenyl)-5-methyl-2-(1-methyl-3-(1-methylpyrrolidin-3-yl)-1H-indazol-5-yl)benzo[d]thiazol-6-yl)acetic acid] | 10 | 2800 | 13200 | – | – | –
CCN1CCC(c2nn(C)c3ccc(-c4nc5cc(C)c([C@H](OC(C)(C)C)C(=O)O)c(-c6ccc(Cl)cc6)c5s4)cc23)C1 (stereo partly drawn) [Compound 64, (2S)-2-(tert-butoxy)-2-(7-(4-chlorophenyl)-2-(3-(1-ethylpyrrolidin-3-yl)-1-methyl-1H-indazol-5-yl)-5-methylbenzo[d]thiazol-6-yl)acetic acid] | 11 | 2840 | 2620 | – | – | –
COCCN1CCC(c2nn(C)c3ccc(-c4nc5cc(C)c([C@H](OC(C)(C)C)C(=O)O)c(-c6ccc(Cl)cc6)c5s4)cc23)C1 (stereo partly drawn) [Compound 65, (2S)-2-(tert-butoxy)-2-(7-(4-chlorophenyl)-2-(3-(1-(2-methoxyethyl)pyrrolidin-3-yl)-1-methyl-1H-indazol-5-yl)-5-methylbenzo[d]thiazol-6-yl)acetic acid] | 4 | 752 | 2120 | – | – | –
Cc1cc2nc(-c3ccc4c(c3)c(C3CCN(C5CCC5)C3)nn4C)sc2c(-c2ccc(Cl)cc2)c1[C@H](OC(C)(C)C)C(=O)O (stereo partly drawn) [Compound 71, (2S)-2-(tert-butoxy)-2-(7-(4-chlorophenyl)-2-(3-(1-cyclobutylpyrrolidine-3-yl)-1-methyl-1H-indazol-5-yl)-5-methylbenzo[d]thiazol-6-yl)acetic acid] | 5 | 2470 | 2240 | – | – | –
COC(=O)N1CCC(c2nn(C)c3ccc(-c4nc5cc(C)c([C@H](OC(C)(C)C)C(=O)O)c(-c6ccc(Cl)cc6)c5s4)cc23)C1 (stereo partly drawn) [Compound 72, (2S)-2-(tert-butoxy)-2-(7-(4-chlorophenyl)-2-(3-(1-(methoxycarbonyl)pyrrolidin-3-yl)-1-methyl-1H-indazol-5-yl)-5-methylbenzo[d]thiazol-6-yl)acetic acid] | 7 | 553 | 1030 | – | – | –
COCC(=O)N1CCC(c2nn(C)c3ccc(-c4nc5cc(C)c([C@H](OC(C)(C)C)C(=O)O)c(-c6ccc(Cl)cc6)c5s4)cc23)C1 (stereo partly drawn) [Compound 75, (S)-2-(tert-butoxy)-2-(7-(4-chlorophenyl)-2-(3-((R)-1-(2-methoxyacetyl)pyrrolidin-3-yl)-1-methyl-1H-indazol-5-yl)-5-methylbenzo[d]thiazol-6-yl)acetic acid] | 16 | 423 | 496 | – | – | –
COCC(=O)N1CCC(c2nn(C)c3ccc(-c4nc5cc(C)c([C@H](OC(C)(C)C)C(=O)O)c(-c6ccc(Cl)cc6)c5s4)cc23)C1 (stereo partly drawn) [Compound 76, (S)-2-(tert-butoxy)-2-(7-(4-chlorophenyl)-2-(3-((S)-1-(2-methoxyacetyl)pyrrolidin-3-yl)-1-methyl-1H-indazol-5-yl)-5-methylbenzo[d]thiazol-6-yl)acetic acid] | – | – | – | 16 | 510 | 906
Cc1cc2nc(-c3ccc4c(c3)c(N3CCNC3=O)nn4C)sc2c(-c2ccc(Cl)cc2)c1[C@H](OC(C)(C)C)C(=O)O [Compound 78, (S)-2-(tert-butoxy)-2-(7-(4-chlorophenyl)-5-methyl-2-(1-methyl-3-(2-oxoimidazolidin-1-yl)-1H-indazol-5-yl)benzo[d]thiazol-6-yl)acetic acid] | 32 | 2690 | 3190 | – | – | –
COCCN1CCN(c2nn(C)c3ccc(-c4nc5cc(C)c([C@H](OC(C)(C)C)C(=O)O)c(-c6ccc(Cl)cc6)c5s4)cc23)C1=O [Compound 79, (S)-2-(tert-butoxy)-2-(7-(4-chlorophenyl)-2-(3-(3-(2-methoxyethyl)-2-oxoimidazolidin-1-yl)-1-methyl-1H-indazol-5-yl)-5-methylbenzo[d]thiazol-6-yl)acetic acid] | 7 | 2320 | 2180 | – | – | –
CCN1CCN(c2nn(C)c3ccc(-c4nc5cc(C)c([C@H](OC(C)(C)C)C(=O)O)c(-c6ccc(Cl)cc6)c5s4)cc23)C1=O [Compound 82, (S)-2-(tert-butoxy)-2-(7-(4-chlorophenyl)-2-(3-(3-ethyl-2-oxoimidazolidin-1-yl)-1-methyl-1H-indazol-5-yl)-5-methylbenzo[d]thiazol-6-yl)acetic acid] | 14 | 3090 | 3870 | – | – | –
Cc1cc2nc(-c3ccc4c(c3)c(N3CCN(CCN5CCOCC5)C3=O)nn4C)sc2c(-c2ccc(Cl)cc2)c1[C@H](OC(C)(C)C)C(=O)O [Compound 83, (S)-2-(tert-butoxy)-2-(7-(4-chlorophenyl)-5-methyl-2-(1-methyl-3-(3-(2-morpholinoethyl)-2-oxoimidazolidin-1-yl)-1H-indazol-5-yl)benzo[d]thiazol-6-yl)acetic acid] | 17 | 2230 | 2810 | – | – | –
CCN1CCN(c2nn(C)c3ccc(-c4nc5cc(C)c([C@H](OC(C)(C)C)C(=O)O)c(-c6ccc(Cl)cc6)c5s4)cc23)CC1=O [Compound 84, (S)-2-(tert-butoxy)-2-(7-(4-chlorophenyl)-2-(3-(4-ethyl-3-oxopiperazin-1-yl)-1-methyl-1H-indazol-5-yl)-5-methylbenzo[d]thiazol-6-yl)acetic acid] | 48 | 1250 | 1870 | – | – | –
Cc1cc2nc(-c3ccc4c(c3)c(N3CCN(C)C(=O)C3)nn4C)sc2c(-c2ccc(Cl)cc2)c1[C@H](OC(C)(C)C)C(=O)O [Compound 85, (S)-2-(tert-butoxy)-2-(7-(4-chlorophenyl)-5-methyl-2-(1-methyl-3-(4-methyl-3-oxopiperazin-1-yl)-1H-indazol-5-yl)benzo[d]thiazol-6-yl)acetic acid] | 57 | 1350 | 1170 | – | – | –
CCN1CCN(c2nn(C)c3ccc(-c4nc5cc(C)c([C@H](OC(C)(C)C)C(=O)O)c(-c6ccc(Cl)cc6)c5s4)cc23)C(=O)C1 [Compound 86, (S)-2-(tert-butoxy)-2-(7-(4-chlorophenyl)-2-(3-(4-ethyl-2-oxopiperazin-1-yl)-1-methyl-1H-indazol-5-yl)-5-methylbenzo[d]thiazol-6-yl)acetic acid] | 15 | 2330 | 2000 | – | – | –
Cc1cc2nc(-c3ccc4c(c3)c(N3CC(N5CCOCC5)C3)nn4C)sc2c(-c2ccc(Cl)cc2)c1[C@H](OC(C)(C)C)C(=O)O [Compound 88, (S)-2-(tert-butoxy)-2-(7-(4-chlorophenyl)-5-methyl-2-(1-methyl-3-(3-morpholinoazetidin-1-yl)-1H-indazol-5-yl)benzo[d]thiazol-6-yl)acetic acid] | 10 | 1240 | 1700 | – | – | –
